Assay [1] deals with Candida albicans. Nature of the assay: Antimicrobial activity against Candida albicans 109 at 30 ug by agar diffusion method. The class given is functional. (In agar diffusion tests the substance spreads into inoculated agar from a disc or well.)
Assay [2] has as its system Candida albicans. Kind of assay: Antimicrobial activity against Candida albicans wisconsin at 30 ug by agar diffusion method. The format is functional.
Assay [3] deals with Saccharomyces cerevisiae. Nature of the assay: Antimicrobial activity against Saccharomyces cerevisiae at 30 ug by agar diffusion method. The class given is functional, organism-based.

This is an account of results in ChEMBL document CHEMBL1155614, “CR377, a new pentaketide antifungal agent isolated from an endophytic fungus” (2000).

The source made the active and inactive calls. No cut-off for these calls is given here.

As to NYSTATIN, the inhibition zone (IZ) in assay [1] came to 22 mm; in assay [2] it was 19 mm; in assay [3] it was 21 mm.
For `C=C1C(O)=C(C(=O)C(C)CC)C(=O)OC1C` (stereo unspecified), the zone of inhibition at 30 µg/disc in assay [1] (read-out: IZ) was 24 mm; in assay [2] (read-out: IZ), 20 mm. Besides, in assay [3], the result was inactive.
